Series [1] has as its system HT-29 cells. The experiment in a line: Proliferation of HT-29 colon cancer cells, Coulter Counter cell count. It counts as cell-based, human. The following applies: for Cell No. on Day 10: average of triplicate wells; for activity at 10000 µM: read-out: % of Control Cells. As for the experimental part: (§1) Cells were grown in Dulbeccos Modified Eagle medium supplemented with 10% calf serum in an atmosphere of 5% CO2 at 37° C. For growth experiments, cells were seeded into 24-well tissue culture dishes (2 cm^2 /well) at a density of 20,000 cells/well and allowed to attach for 12 hours. The growth medium was then changed and replaced with fresh media containing the test drugs.
(§2) The test drugs were dissolved in tissue culture media at the desired concentration and added to individual wells. To determine the number of cells per well, media was removed and the cells washed with phosphate buffered saline solution. The cells were then incubated 15 minutes with trypsin-EDTA solution until detached. The detached cells were then removed from the wells and counted using a Coulter Counter (Model ZBI).
(§3) The cell numbers shown in Table I are the average of triplicate culture wells.

The test system of series [2] is LS174T cells. The experiment in a line: Proliferation of LS174T colon cancer cells, Coulter Counter cell count. It counts as cell-based, human. Conditions: for Cell No. on Day 10: average of triplicate wells; for activity at 10000 µM: 240 h. As for the experimental part:
as §1, §2, §3

In the next series the test system is human colon cancer cells. The experiment in a line: Colon cancer cell proliferation in vitro, comparative statements. It counts as cell-based. The method, then:
as §1, §2, §3
For dose response studies a sensitive dye binding assay was adapted which allows simultaneous assay of multiple agents and doses in 96-well plates. Cells were plated and allowed to adhere for 24 hours prior to addition of the study drug. Cell densities were then determined 4 days later by fixation of the wells and staining with Sulforhodamine B dye. Optical density of the stained cultures was then determined using a 96-well plate reader at 495 nm (Skehan et al. (1990) J. Natl. Cancer Inst. 82:1107-1112).
Two such oxidation products, gentisic acid (Dull et al. (1987) Biochem. Pharmacol. 36:2467-2472) and 5-nitro-salicylate (Laffafian et al. (1991) Biochem. Pharmacol. 42:1869-1874) have been elucidated.

For series [3] the following is noted: cited from earlier work; for absorption: oral balsalazide.
Series [4] concerns HT-29 cells. The experiment in a line: Dose response growth inhibition of HT-29 cells, Sulforhodamine B dye binding assay. Type of series: cell-based, human. Conditions: for IC50: Homo sapiens. The method, then: (§4) For dose response studies a sensitive dye binding assay was adapted which allows simultaneous assay of multiple agents and doses in 96-well plates. Cells were plated and allowed to adhere for 24 hours prior to addition of the study drug. Cell densities were then determined 4 days later by fixation of the wells and staining with Sulforhodamine B dye.
A general note: Sulforhodamine B stains cellular protein and so reports cell mass.

The test system of series [5] is LS174T cells. The experiment in a line: Dose response growth inhibition of LS174T cells, Sulforhodamine B dye binding assay. Conditions: for IC50: Homo sapiens. Type of series: cell-based, human. As for the experimental part: as §4
The test system of a further series is LoVo cells. The experiment in a line: Growth inhibition of LoVo colon cancer cells. It counts as cell-based. Conditions: Homo sapiens, Table IV, read-out: IC50 for inhibition of human colon cancer cell proliferation. As for the experimental part:
as §4

In another series the test system is HRT-18 cells. The experiment in a line: Growth inhibition of HRT-18 colon cancer cells. It counts as cell-based. The following applies: Homo sapiens; HRT-18, Table IV; read-out: IC50 for inhibition of human colon cancer cell proliferation. As for the experimental part:
as §4

The subject of series [6] is LS174T cells. The experiment in a line: LS174T growth with freshly dissolved or pre-dissolved 5-ASA. Type of series: cell-based. Conditions: Homo sapiens, 96 h. As for the experimental part:
Cells were grown an additional 4 days prior to quantitation.

In another series the test system is colon cancer cells. The experiment in a line: 5-ASA growth inhibitory activity following hypochlorite exposure. It counts as cell-based. Conditions: for inhibition at 10000 µM: 5-ASA 10 mM, read-out: Increase in Growth Inhibition. The text has this: Indeed certain of its therapeutic benefits in the treatment of intestinal inflammation are thought to be derived from its ability to scavenge free radicals including O2^- released from inflammatory cells and thereby reduced oxidative damage.

Series [7] relates to rectal mucosal reactive oxygen metabolite production. The following applies: rectal biopsies, ulcerative colitis patients; cited from earlier work.
The next series deals with nitrosamine formation. The following applies: from arginine-dependent nitric oxide; cited from earlier work.
A further series relates to colon cancer incidence. Conditions: cited from earlier work.
The test system of a further series is polyps. Conditions: cited from earlier work; for effect on polyps: sulindac: nine familial polyposis patients, randomized placebo-controlled double-blind crossover.
The conditions of series [8]: in vivo; cited from earlier work.
In the next series the test system is colon carcinogenesis. Conditions: cited from earlier work.
The mark [9] stands for this setting: Homo sapiens, 240 h, HT-29, 10 mM, Day 10.
Setting [10] is: Homo sapiens, 10 mM, Day 10, read-out: % of Control Cells.
[11] abbreviates: HT-29, Table IV, read-out: IC50 for inhibition of human colon cancer cell proliferation.
[12] abbreviates: Table IV, read-out: IC50 for inhibition of human colon cancer cell proliferation.

The values below come from patent US5905073A, “Use of 2-hydroxy-5-phenylazobenzoic acid derivatives as colon cancer chemopreventative and chemotherapeutic agents” (priority 1996, dated 1999).

“Also recorded” adds a separate entry of the source. Like-named read-outs stand apart in the source and are kept apart here.

As to `Nc1ccc(C(=O)NCCC(=O)O)cc1` [4-ABA, 4-aminobenzoyl-β-alanine], the “Cell No. on Day 10” value with HT-29 cells [1] (HT-29, 10 mM) worked out at 1316625; with LS174T cells [2] (10 mM) it was 768700. Also, the activity at 10000 µM in the series with HT-29 cells [1] (setting [9]) was 100%; in the series on LS174T cells [2] (setting [10]) it was 108%. For the same compound, in the series on human colon cancer cells, the “inhibition of colon cancer cell growth (in words)” value (“inhibition … (in words)” below) was “inactive”. Also, the absorption entry in [3] is on record as “poorly absorbed”.
As to `Nc1ccc(O)c(C(=O)O)c1` [5-ASA, 5-aminosalicylic acid], the “Cell No. on Day 10” value in the series with HT-29 cells [1] (HT-29, 10 mM) is recorded as 512825; in the series on LS174T cells [2] (10 mM), 8675. Besides, the activity at 10000 µM in the series on HT-29 cells [1] (setting [9]) was determined as 39%; with LS174T cells [2] (setting [10]), 1.22%; in the series on LS174T cells [6] (10 mM dissolved in culture media 4 days prior, read-out: growth response relative to control cultures), 22.9%; in the series with LS174T cells [6] (freshly dissolved 10 mM, 4 days, read-out: growth response relative to control cells) it was 82.7%. Further, the inhibition at 10000 µM in the series on HT-29 cells [1] (Homo sapiens, HT-29, 10 mM, read-out: growth inhibition) is 82%; in the series with LS174T cells [2] (Homo sapiens, 10 mM, read-out: growth inhibition), 85%; in the series with colon cancer cells (Na hypochlorite 0 mM), 0%; in the series with colon cancer cells (Na hypochlorite 0.01 mM) it was 2%; in the series on colon cancer cells (Na hypochlorite 0.05 mM) it was 4%; in the series on colon cancer cells (Na hypochlorite 0.1 mM), 8%. Moreover, the inhibition at 10000 µM in the series with colon cancer cells (Na hypochlorite 0.2 mM) came out at 26%; with colon cancer cells (Na hypochlorite 0.3 mM) it was 42%; in the series on colon cancer cells (Na hypochlorite 0.4 mM), 48%. In addition, the “increase in cell number” value in the series with HT-29 cells [4] (HT-29, 0.1-4 mM) was “approximately 20%”; in the series on LS174T cells [5] (0.1-1.0 mM), “approximately 20%”. Moreover, the IC50 with HT-29 cells [4] (setting [11]) is 11.9 mM; in the series on HT-29 cells [4] (HT-29, text (FIG. 5), read-out: IC50) it was 11.8 mM; in the series with LS174T cells [5] (setting [12]), 11.6 mM; in the series with LS174T cells [5] (text (FIG. 5), read-out: IC50) it was 11.5 mM; in the series on LoVo cells, 10.2 mM; with HRT-18 cells it was 10.5 mM. In the series with colon cancer cells (unoxidized 5ASA), this compound yielded a Basal inhibitory activity of 45%. For the same compound, in [3] (single dose of balsalazide, 96-hour period), the “conversion to N-acetyl-5-ASA and excretion in urine” value is listed as “majority”. Further, in [7], the “reduction of rectal mucosal reactive oxygen metabolite production” value is recorded as “over 90%”. The “inhibition of nitrosamine formation” value with nitrosamine formation is recorded as “inhibits nitrosamine formation”.
Consider `O=C(O)c1cc([N+](=O)[O-])ccc1O` [5-NSA, 5-nitro-salicylate], for which the IC50 was 1.63 mM with HT-29 cells [4] (setting [11]), 2.69 mM with LS174T cells [5] (setting [12]), 1.38 mM in the series with LoVo cells and 1.46 mM in the series on HRT-18 cells.
As to `CC(=O)Oc1ccccc1C(=O)O` [Ac-salicylic acid, acetyl salicylic acid], the “Cell No. on Day 10” value with HT-29 cells [1] (HT-29, 10 mM) was 14625; in the series with LS174T cells [2] (10 mM) it was 8300. The activity at 10000 µM in the series on HT-29 cells [1] (Homo sapiens, HT-29, 240 h) came out at 1.11%; in the series with LS174T cells [2] (Homo sapiens, read-out: % of Control Cells) it was 2.24%. Further, the “inhibition … (in words)” value with human colon cancer cells is given as “potently inhibitory”. Moreover, in the series on colon cancer incidence (retrospective study (Kune et al.)), the “risk of colon cancer development” value is “halving”. Further, the “increased risk of colon cancer” value in the series on colon cancer incidence (retrospective study (Paganini-Hill et al.)) is 50%.
As to `O=C(O)c1cc(O)ccc1O` [Gentisate, gentisic acid], the IC50 in the series with HT-29 cells [4] (setting [11]) was determined as 5.05 mM; in the series with LS174T cells [5] (setting [12]) it was 5.85 mM; in the series on LoVo cells it was 4.42 mM; in the series on HRT-18 cells, 2.98 mM. In addition, the “inhibition … (in words)” value in the series with human colon cancer cells is recorded as “inhibited cell growth”.
As to `CC(=O)Nc1ccc(C(=O)NCCC(=O)O)cc1` [N-acetyl metabolite of 4-ABA], the absorption entry in series [3] is reported as “poorly absorbed”.
With `CC(=O)Nc1ccc(O)c(C(=O)O)c1` [N-acetyl-5-ASA], the “activity of N-acetyl metabolite of 5-ASA” value in [3] (in vivo) is “inactive”.
`[Na+].[O-]Cl` [NaOCl, sodium hypochlorite]: in the series with colon cancer cells (0.4 mM NaOCl), the Background inhibitory activity result is “less than 2%”.
For the compound `COc1ccc2c(c1)c(CC(=O)O)c(C)n2C(=O)c1ccc(Cl)cc1` [indomethacin], the effect on polyps result in the series on polyps is recorded as “no influence on polyp regression”. The absorption / activation entry in [8] is listed as “absorbed primarily from the upper GI tract”.
Take `CC1=C(CC(=O)O)c2cc(F)ccc2/C1=C\c1ccc([S+](C)[O-])cc1` (stereo not shown) [sulindac]: in the series with polyps (nine familial polyposis patients), the “time to regression of polyps” value is “less than 4 months”. The effect on polyps entry with polyps was “regression of polyps; also recorded: polyp growth resumed following sulindac withdrawal”. Also, in the series on colon carcinogenesis, the “effect on tumor incidence, dimethylhydrazine-induced” value is “reduce tumor incidence only when present during carcinogen administration”. Further, the absorption / activation result in series [8] is on record as “converted to its active metabolite, sulindac sulfide, by the colonic bacteria”.

As usually defined, the inhibition is the change of the read-out against control, counted positive when it falls.
